Experimental findings from patent publication US20030171368A1, “Pyrimidinonesulfamoylureas`” (priority 2002, published 2003) are described below.

In general, solubility refers to the concentration that dissolves in the medium under given conditions. A higher solubility goes with a readily soluble substance.

In brackets after ≈: the same amount, converted by molar mass.

The first data set concerns the target T1, integrin αvβ3 (Homo sapiens, UniProt P05106+P06756).
T1 construct: from tissue; host or cells: human placenta
The data set can be described thus: Integrin αvβ3 assay: competition between vitronectin and test substance for binding to solid phase-bound integrin αvβ3. The conditions noted are these: competition with human vitronectin; result in words only. The protocol: For the identification and assessment of integrin αvβ3 ligands, a test system was used which is based on competition between the natural integrin αvβ3 ligand vitronectin and the test substance for binding to solid phase-bound integrin αvβ3. […]
coat microtiter plates with 250 ng/ml of integrin αvβ3 in 0.05 M NaHCO3 pH 9.2; 0.1 ml/well; overnight/4° C. saturate with 1% milk powder/assay buffer; 0.3 ml/well; 0.5 h/RT wash 3× with 0.05% Tween 20/assay buffer test substance in 0.1% milk powder/assay buffer, 50 μl/well +0 μg/ml or 2 μg/ml of human vitronectin (Boehringer Ingelheim T007) in 0.1% milk powder/assay buffer, 50 μl/well; 1 h/RT […]
1 μg/ml of anti-human vitronectin antibody coupled to peroxidase (Kordia SAVN-APHRP) in 0.1% milk powder/assay buffer; 0.1 ml/well; 1 h/RT […]
0.1 ml/well of peroxidase substrate stop reaction with 0.1 ml/well of 2 M H2SO4 measurement of the absorption at 450 nm
Integrin αvβ3: Human placenta is solubilized with Nonidet and integrin αvβ3 is affinity-purified on a GRGDSPK matrix (elution mit EDTA). Impurities due to integrin […] and human serum albumin, and the detergent and EDTA are removed by anion exchange chromatography. […]
In the case of `Cc1cn(C[C@H](NS(=O)(=O)N(C)C)C(=O)O)c(=O)nc1N1CCC(CNc2ccccn2)CC1` [Example 9, (2S)-2-{[(Dimethylamino)sulfonyl]amino}-3-(5-methyl-2-oxo-4-{4-[(2-pyridinylamino)-methyl]-1-piperidinyl}-1 (2H)-pyrimidinyl)propionic acid], the “IC50 values (concentration of the ligand at which 50% of the ligand is displaced)” value was “best results”.
As to `Cc1cn(C[C@H](NS(=O)(=O)N(C)C)C(=O)O)c(=O)nc1N1CCC(CNc2nc3ccccc3[nH]2)CC1.Cl.Cl` [Example 2, (2S)-3-(4-{4-[(1H-Benzimidazol-2-ylamino)methyl]-1-piperidinyl}-5-methyl-2-oxo-1 (2H)-pyrimidinyl)-2-{[(dimethylamino)sulfonyl]amino}propionic acid (dihydrochloride)], the “IC50 values (concentration of the ligand at which 50% of the ligand is displaced)” value was “best results”.

Tested on in another data set: not listed separately
As to the kind of experiment: Solubility in water (10 mg in 1 ml H2O, shaken, centrifuged, HPLC against DMSO solution). Format: physicochemical. The conditions noted are these: 10 mg substance in 1 ml H2O, shaken 10 minutes, supernatant measured by HPLC. How it is done:
The compounds of the general formula I according to the invention are distinguished in comparison to the substances described in WO 00/61551 by more advantageous physicochemical properties, in particular an improved solubility in water.
10 mg of the substance to be investigated were dissolved in 1 ml of DMSO, vigorously shaken for 10 minutes and then centrifuged for 10 minutes at 10000 rpm and diluted with a mixture of 5% CH3CN/H2O+0.1% TFA 1:10.
10 mg of substance were mixed with 1 ml of H2O, vigorously shaken for 10 minutes and centrifuged for 10 minutes at 10000 rpm. The supernatant was removed and likewise diluted. Both solutions were measured by HPLC (column: MACHEREY & NAGEL, Nucleosil C18 PPN, 100×2.1 mm ID, 5μ, temp: 40° C.) and the concentration of the aq. solution was determined.
Take `CCOC(=O)N[C@@H](Cn1cc(C)c(N2CCC(CNc3nc4ccccc4[nH]3)CC2)nc1=O)C(=O)O.Cl` [(2S)-3-(4-{4-[(1H-Benzimidazol-2-ylamino)methyl]-1-piperidlnyl}-5-methyl-2-oxo-1(2H)-pyrimidinyl)-2-[(ethoxycarbonyl)amino]propanoic acid (hydrochloride)]: the “Solubility (H2O)” value turned out to be 560 µg/mL.

The data set is the same for the next values; noted with them: water, thermodynamic from solid, 10 mg substance in 1 ml H2O, shaken 10 minutes, supernatant measured by HPLC.
`CC(=O)N[C@@H](Cn1cc(C)c(N2CCC(CNc3nc4ccccc4[nH]3)CC2)nc1=O)C(=O)O.Cl` [(2S)-2-(Acetylamino)-3-(4-{4-[(1H-benzimidazol-2-ylamino)methyl]-1-piperidinyl}-5-methyl-2-oxo-1(2H)-pyrimidinyl)propanoic acid (hydrochloride)]: the solubility at 10 min is 1000 µg/mL.
In the case of `Cc1cn(C[C@H](NS(=O)(=O)N(C)C)C(=O)O)c(=O)nc1N1CCC(CNc2nc3ccccc3[nH]2)CC1.Cl.Cl` [Example 2, (2S)-3-(4-{4-[(1H-Benzimidazol-2-ylamino)methyl]-1-piperidinyl}-5-methyl-2-oxo-1 (2H)-pyrimidinyl)-2-{[(dimethylamino)sulfonyl]amino}propionic acid (dihydrochloride)], the solubility at 10 min was 2500 µg/mL. Compared with the last compound, the solubility at 10 min is about 2.5-fold higher.
Same read-out and setting: next, `Cc1cn(C[C@H](NC(=O)N(C)C)C(=O)O)c(=O)nc1N1CCC(CNc2nc3ccccc3[nH]2)CC1.Cl` [(2S)-3-(4-{4-[(1H-Benzimidazol-2-ylamino)methyl]-1-piperidinyl}-5-methyl-2-oxo-1(2H)-pyrimidinyl)-2-{[(dimethylamino)carbonyl]amino}propanoic acid (hydrochloride)]: 810 µg/mL; `CC(=O)O.Cc1cn(C[C@H](NS(=O)(=O)c2ccccc2)C(=O)O)c(=O)nc1N1CCC(CNc2nc3ccccc3[nH]2)CC1` [(2S)-3-(4-{4-[(1H-Benzimidazol-2-ylamino)methyl]-1-piperidinyl}-5-methyl-2-oxo-1(2H)-pyrimidinyl)-2-[(phenylsulfonyl)amino]propanoic acid (acetate)]: < 50 µg/mL; `Cc1cn(C[C@H](NS(C)(=O)=O)C(=O)O)c(=O)nc1N1CCC(CNc2nc3ccccc3[nH]2)CC1.Cl` [(2S)-3-(4-{4-[(1H-Benzimidazol-2-ylamino)methyl]-1-piperidinyl}-5-methyl-2-oxo-1(2H)-pyrimidinyl)-2-[(methylsulfonyl)amino]propanoic acid (hydrochloride)]: < 50 µg/mL.
Still for that read-out and setting: the figure for `CCNC(=O)N[C@@H](Cn1cc(C)c(N2CCC(CNc3nc4ccccc4[nH]3)CC2)nc1=O)C(=O)O` [(2S)-3-(4-{4-[(1H-Benzimidazol-2-ylamino)methyl]-1-piperidinyl}-5-methyl-2-oxo-1(2H)-pyrimidinyl)-2-{[(ethylamino)carbonyl]amino}propanoic acid] is 860 µg/mL (≈ 1730 µM).
